Test results as given in patent publication US4024277A, “Phosphoro-aminosulfenyl derivatives of benzofuran carbamates” (priority 1975, dated 1977).

Tests used:
[1] = tested on: female house flies (resistant); assay: Level II topical test, house flies; type: in vivo, Musca domestica Linnaeus; conditions: HF (female, resistant), one microgram topically per insect; for % Knockdown: 10 minutes; for mortality at 0.001 mg: Musca domestica, topical, read-out: % Kill
Description: (§1) e. Insecticidal Activity Against House Flies and German Cockroaches
In a Level II test the compounds of this invention were tested for insecticidal activity against female house flies (resistant) and male German cockroaches. Ten insects were anesthetized with carbon dioxide and placed in a container for about 2 hours, during which time the insects recovered to normal activity. The container confining the insects is fitted with a plunger which is used to force the insects against a nylon mesh at one end of the container. One microliter of an acetone solution containing one microgram of the candidate insecticide was applied topically to each insect. The plunger was withdrawn and the insects were allowed to move freely about the container. Knockdown counts were recorded 10 minutes after treatment of house flies and 30 minutes after treatment of cockroaches.

twospotted spider mite [2] = assay: Seven-day residual insecticidal activity, twospotted spider mite; type: in vivo, Tetranychus urticae Koch; conditions: Tetranychus urticae, 48-hour exposure, read-out: % Kill, Twospotted Spider Mite
Description: (§2) b. Seven-Day Residual Insecticidal Activity
(§3) In this test, a candidate insecticide, in solution, is applied to uninfested plants or containers by dipping or spraying. A seven-day holding period is necessary before infestation. A 48-hour exposure period is observed before evaluation of the tests. The insect species used in this type of test are the same as those listed under initial activity.

house flies = assay: Level I immersion test, house flies; type: in vivo, Musca domestica Linnaeus; conditions: HF, 5 mg/milliliter; for % Knockdown: 10 minutes after immersion; for mortality at 5000 µg/mL: Musca domestica, after 18-24 hours, read-out: % Kill
Description: as §1
Compounds of this invention were tested in a Level I test at 5 mg. of active compounds/milliliter of a solution of 40% acetone -- 60% water.
In this test a group of ten house flies (Musca domestica Linnaeus) were completely immersed in 25 ml. of the insecticidal test solution. After 10 seconds of immersion, the test solution is removed. The house flies are then transferred to holding cages lines with paper toweling. In the case of the house flies, the knockdown counts were recorded 10 minutes after termination of the immersion. The percent kill was recorded after 18-24 hours.

[3] = Mammalian toxicity, 14-day LD50 in rats; conditions: rat, in vivo, Wistar derived albino rats, method of Miller and Tainter
Description: The compounds of this invention are characterized by advantageous mammalian toxicity values when compared with values for related compounds. This is shown by comparative values obtained with Wistar derived albino rats in 14-day tests. The animals were fed, housed and watered in accordance with standard laboratory procedures. The 14-day LD50 determination was estimated in accord with the method of Miller and Tainter (Experimental Biology and Medicine, 57, pp. 261-264, 1944).

southern armyworm [4] = assay: Systemic insecticidal activity (soil/water), southern armyworm; type: in vivo, Spodoptera eridania (Cramer); conditions: Spodoptera eridania, 48-hour exposure, read-out: % Kill, Southern Armyworm
Description: c. Systemic Insecticidal Acitivity (Soil/Water)
In this test, a candidate insecticide, in solution, is added to the soil of either uninfested pinto bean seedlings (Phaseolus vulgaris) or uninfested broad bean seedlings (Vicia faba var. Windsor). The plant species used depend on the insect species in the test. Usually, a 72-hour translocation period before infestation is required, followed by a 48-hour exposure period, before evaluation of the tests. The insect species used in the systemic tests are Mexican bean beetle, southern armyworm, pea aphid, and twospotted spider mite.

confused flour beetle = assay: Initial insecticidal activity, confused flour beetle; type: in vivo, Tribolium confusum Jacquelin duVal; conditions: Tribolium confusum, 48-hour exposure, read-out: % Kill, Confused Flour Beetle
Description: (§4) a. Initial Insecticidal Activity
(§5) In this test, a candidate insecticide, in solution, is applied to either infested or uninfested plants or containers by spraying or dipping. (The preferred test procedure varies with insect species. The dipping method is better than the spraying method, and vice versa, for certain species of insects. Also some species are better adapted to the test by infesting after the chemical treatment rather than before.) Once the tests have been established, a 48-hour exposure period is observed before reading the tests. Insect species included in these tests are Mexican bean beetle (Epilachna varivestis Mulsant), pea aphid [Acyrthosiphon pisum (Harris)], southern armyworm [Spodoptera eridania (Cramer)], twospotted spider mite (Tetranychus urticae Koch), large milkweed bug [Oncopeltus fasciatus (Dallas)], plum curculio [Conotrachelus nenuphar (Herbst)], confused flour beetle (Tribolium confusum Jacquelin duVal) and granary weevil [Sitophilus granarius (Linnaeus)]. Test results are set forth in Table I. A control sample, comprising the solution without the candidate insecticide, is also included.

granary weevil [5] = assay: Initial insecticidal activity, granary weevil; type: in vivo, Sitophilus granarius (Linnaeus); conditions: Sitophilus granarius, 48-hour exposure, read-out: % Kill, Granary Weevil
Description: as §4, §5

southern armyworm [6] = assay: Seven-day residual insecticidal activity, southern armyworm; type: in vivo, Spodoptera eridania (Cramer); conditions: Spodoptera eridania, 48-hour exposure, read-out: % Kill, Southern Armyworm
Description: as §2, §3

twospotted spider mite [7] = assay: Ovicidal activity against the twospotted spider mite; type: in vivo, Tetranychus urticae Koch; conditions: Tetranychus urticae, eggs, 7 to 10 days, read-out: % Kill (ovicidal)
Description: d. Ovicidal Activity Against the Twospotted Spider Mite
In this test, Pinto bean seedlings are infested with female twospotted spider mites; about 3-4 hours are allowed for egg deposition. Plants are then dipped in TEPP (tetraethylpyrophosphate-commercial emulsifiable concentrate (EC)) solution containing 936 ppm of active ingredient. TEPP kills motile forms on the leaf and promptly degrades without effecting the egg stage. Two to three hours after TEPP treatment the plants are again dipped -- this time into a candidate insecticide solution. The test plants are maintained for 7 to 10 days. Termination of exposure is determined by the time required to attain complete hatch in the untreated check.

granary weevil [8] = assay: Seven-day residual insecticidal activity, granary weevil; type: in vivo, Sitophilus granarius (Linnaeus); conditions: Sitophilus granarius, 48-hour exposure, read-out: % Kill, Granary Weevil
Description: as §2, §3

Structure (SMILES)	% Knockdown [1]	mortality at 0.001 mg [1]	mortality at 39 ppm (twospotted spider mite [2])	mortality at 156 ppm (twospotted spider mite [2])	mortality at 1250 ppm (twospotted spider mite [2])	% Knockdown (house flies)	mortality at 5000 µg/mL (house flies)	mortality at 39 ppm (southern armyworm [4])	mortality at 156 ppm (southern armyworm [4])	mortality at 39 ppm (confused flour beetle)	mortality at 156 ppm (confused flour beetle)	mortality at 1250 ppm (confused flour beetle)	mortality at 39 ppm (granary weevil [5])	mortality at 156 ppm (granary weevil [5])	mortality at 1250 ppm (granary weevil [5])	mortality at 39 ppm (southern armyworm [6])	mortality at 156 ppm (southern armyworm [6])	mortality at 1250 ppm (southern armyworm [6])	mortality at 156 ppm (twospotted spider mite [7])	mortality at 1250 ppm (twospotted spider mite [7])	other results
CCCOP(=O)(OCCC)N(C)SN(C)C(=O)Oc1cccc2c1OC(C)(C)C2 [2(d), 2,3-dihydro-2,2-dimethyl-7-benzofuranyl [(N-di-n-propoxyphosphinyl) (N-methyl)aminosulfenyl][methyl]carbamate]	0%	40%	0%	0%	1%	100%	100%	94%	100%	0%	2%	72%	88%	100%	100%	0%	0%	60%	2%	80%	LD50 at 336 h [3]: 152 mg/kg; mortality at 10 ppm (southern armyworm [4]): 0%
CCCOP(=O)(OCCC)N(CCC)SN(C)C(=O)Oc1cccc2c1OC(C)(C)C2 [3(c)]	0%	40%	< 1%	0%	5%	100%	100%	0%	95%	0%	2%	55%	70%	90%	100%	0%	0%	0%	0%	70%	mortality at 10 ppm (southern armyworm [4]): 0%
CCN(SN(C)C(=O)Oc1cccc2c1OC(C)(C)C2)P(=O)(OC)OC [5(c), 2,3-dihydro-2,2-dimethyl-7-benzofuranyl [(N-dimethoxyphosphinyl) (N-ethyl)aminosulfenyl][methyl]carbamate]	0%	38%	2%	0%	2%	100%	100%	60%	100%	0%	0%	78%				0%	0%	61%	0%	38%	
CC(C)OP(=O)(OC(C)C)N(C)SN(C)C(=O)Oc1cccc2c1OC(C)(C)C2 [6(c), 2,3-Dihydro-2,2-dimethyl-7-benzofuranyl [(N-diisopropoxyphosphinyl) (N-methyl)aminosulfenyl][methyl]carbamate]	0%	27%	0%	1%	0%	100%	100%	28%	100%	0%	0%	18%				0%	0%	7%	0%	91%	
CCCN(SN(C)C(=O)Oc1cccc2c1OC(C)(C)C2)P(=O)(Oc1ccccc1)Oc1ccccc1 [7(c)]			1%	0%	0%	40%	0%	0%	0%	0%	0%	0%				0%	0%	0%	0%	0%	
CCOP(=O)(OCC)N(CC)SN(C)C(=O)Oc1cccc2c1OC(C)(C)C2 [8(c), 2,3-Dihydro-2,2-dimethyl-7-benzofuranyl [(N-diethoxyphosphinyl) (N-ethyl)aminosulfenyl][methyl]carbamate]	0%	33%	0%	0%	0%	100%	100%	20%	57%	0%	0%	50%				0%	0%	43%	0%	26%	
CCOP(=O)(OCC)N(C)SN(C)C(=O)Oc1cccc2c1OC(C)(C)C2 [Example 1(c), 2,3-dihydro-2,2-dimethyl-7-benzofuranyl [(N-diethoxyphosphinyl) (N-methyl)-aminosulfenyl][methyl]carbamate]	0%	20%	2%	1%	9%	100%	100%	0%	92%	14%	15%	33%	30%	100%	100%	0%	5%	95%	0%	72%	mortality at 39 ppm (granary weevil [8]; 39 ppm): 8%; mortality at 156 ppm (granary weevil [8]; 156 ppm): 97%; mortality at 1250 ppm (granary weevil [8]; 1250 ppm): 100%; LD50 at 336 h [3]: 146 mg/kg; mortality at 39 ppm (twospotted spider mite [7]; 39 ppm): 0%
